Measurements published in patent publication EP4667483A1, “HUMAN TRANSFERRIN RECEPTOR-BINDING PEPTIDE” (JCR Pharmaceuticals Co., Ltd., priority 2023, dated 2024).
Numbered stars: 1 amine (or outer) side, 2 acyl side, 3 side chain; on linkers, the order of the positions; unused ones are H or OH. Bridge positions count the residues as written; N and C are the ends. Square brackets hold non-standard residues; d marks the D form. Peptide text beside a SMILES is read from it. * marks the point of attachment. CH2CO(D-glucamine) = O=C(C*)NC[C@H](O)[C@@H](O)[C@H](O)[C@H](O)CO; NH(1-deoxy-D-glucityl) = OC[C@@H](O)[C@@H](O)[C@H](O)[C@@H](O)CN*; CH2CON(CH2CH2)2NCH2COOH = O=C(O)CN1CCN(C(=O)C*)CC1; NMePhe(4-COOH) = CN[C@@H](Cc1ccc(C(=O)O)cc1)C(=O)O; X1 = O=C([C@H](Cc1cccc(C(=O)[*:3])c1)N[*:1])[*:2]; Phe(3-COOH) = N[C@@H](Cc1cccc(C(=O)O)c1)C(=O)O; Trp(7-aza) = N[C@@H](Cc1c[nH]c2ncccc12)C(=O)O; NH(CH2CH2O)8Me = COCCOCCOCCOCCOCCOCCOCCOCCN*; NMePhe(3-Cl) = CN[C@@H](Cc1cccc(Cl)c1)C(=O)O; 3Pal(6-NH2) = Nc1ccc(C[C@H](N)C(=O)O)cn1; NMeW = CN[C@@H](Cc1c[nH]c2ccccc12)C(=O)O; Lys(N3) = [N-]=[N+]=NCCCC[C@H](N)C(=O)O; NMeY = CN[C@@H](Cc1ccc(O)cc1)C(=O)O; Nva(3-Et) = CCC(CC)[C@H](N)C(=O)O; NMeF = CN[C@@H](Cc1ccccc1)C(=O)O; PEG4 = NCCOCCOCCOCCOCCC(=O)O; Carboxymethyl = O=C(O)C*

Legend:
[1] = biological target: T1, human transferrin receptor (hTfR) (Homo sapiens, UniProt P02786); experiment: SPR measurement under pH 6.0 conditions (Biacore T200, NTA chip, immobilized hTfR); assay type: binding; settings: read-out: hTfR SPR pH6.0 KD
Method: (§1) Molecular interactions between the synthesized peptides and the transferrin receptor (hTfR) were evaluated by surface plasmon resonance (SPR) using the following method. The specific assay procedure is described below.
An NTA sensor chip (Cytiva) was inserted in a Biacore T200 (Cytiva), a priming operation was performed 3 times with a running buffer: HBS-P+ pH 6.0 (Cytiva), and an equilibrium state was created at a flow rate of 30 µL/min. A ligand immobilization operation was carried out at a flow rate of 10 µL/min.
The surface of the NTA sensor chip was washed with 350 mM EDTA solution, nickel ions were loaded into the carbomethyldextran chains of the sensor chip with a 500 µM aqueous nickel chloride solution, and then washing was performed with 3 mM EDTA solution. After mixing 50 µL of each of 60 mM EDC solution (Cytiva) and 650 mM NHS solution (Cytiva), the mixture was reacted for 420 seconds at a flow rate of 10 µL/min. 150 µL of 0.2 µM hTfR solution was prepared by diluting with 10 mM acetic acid solution (pH 5.0), and reacted for 420 seconds at a flow rate of 10 µL/min to immobilize hTfR on the NTA sensor chip. For the human transferrin receptor (hTfR), the recombinant hTfR described in Example 2 of WO2018/124121 was used. After immobilization, capping was performed by reacting with 1.0 M ethanolamine aqueous solution (Cytiva) at a flow rate of 10 µL/min for 420 seconds. Peptide lysate prepared in DMSO to 10 mM was diluted with the running buffer to a final concentration of 10 µM peptide lysate, and then peptide solutions of 250 nM, 125 nM, 62.5 nM, 25 nM, and 12.5 nM were prepared. The kinetics of the peptide against hTfR was obtained by SPR measurement using the above samples.
(§2) The kinetic evaluation model was single-cycle kinetics, and curve fitting was performed using Biacore T200 Evaluation Software Version 3.0 (Cytiva). The binding of the peptide to hTfR was evaluated by performing curve fitting on the obtained sensorgram by the least squares method and obtaining the kon value, the koff value, and the KD value.

[2] = biological target: T1, human transferrin receptor (hTfR); experiment: SPR measurement under pH 7.4 conditions (Biacore T200, CM3 chip, hTfR captured by His Tag antibody); assay type: binding; settings: SPR, pH 7.4
Method: as §1
An CM3 sensor chip (Cytiva) was inserted into BiacoreT200 (Cytiva), then a priming operation was performed three times by using a running buffer: HBS-P+, pH7.4 (Cytiva), and an equilibrium state was created at a flow rate of […]. Ligand immobilization was performed at a flow rate of 10 µL/min. After mixing 50 µL each of 60 mM EDC solution (Cytiva) and 650 mM NHS solution (Cytiva), the mixture was reacted at a flow rate of 10 µL/min for 420 seconds. 150 µL of […] THE His Tag Antibody, mAb, Mouse (GenScript) was prepared by diluting with 10 mM acetic acid solution (pH 5.0), and reacted at a flow rate of 10 µL/ min for 420 seconds. Then, THE His Tag Antibody, mAb, Mouse (GenScript) was immobilized as a capture molecule on the CM3 sensor chip. After immobilization, capping was performed by reacting with 1.0 M ethanolamine solution (Cytiva) at a flow rate of 10 µL/min for 420 seconds. 300 nM hTfR was captured at a flow rate of 10 µL/min, a peptide solution prepared at 10 mM in DMSO was diluted with running buffer to achieve a final concentration of 10 µM, and peptide solutions at 250 nM, 125 nM, 62.5 nM, 25 nM, and 12.5 nM were prepared. . The peptide samples were reacted at a flow late of 30 µL/min for 120 seconds, followed by dissociation for 600 seconds. The kinetics of the peptide against hTfR was obtained by SPR measurement for the above samples.
as §2

[3] = Table 2-1-2, read-out: hTfR SPR pH7.4 KD(n M)
[4] = Table 2-2, read-out: hTfR SPR pH7.4 KD

T1 sequence (P02786 whole entry): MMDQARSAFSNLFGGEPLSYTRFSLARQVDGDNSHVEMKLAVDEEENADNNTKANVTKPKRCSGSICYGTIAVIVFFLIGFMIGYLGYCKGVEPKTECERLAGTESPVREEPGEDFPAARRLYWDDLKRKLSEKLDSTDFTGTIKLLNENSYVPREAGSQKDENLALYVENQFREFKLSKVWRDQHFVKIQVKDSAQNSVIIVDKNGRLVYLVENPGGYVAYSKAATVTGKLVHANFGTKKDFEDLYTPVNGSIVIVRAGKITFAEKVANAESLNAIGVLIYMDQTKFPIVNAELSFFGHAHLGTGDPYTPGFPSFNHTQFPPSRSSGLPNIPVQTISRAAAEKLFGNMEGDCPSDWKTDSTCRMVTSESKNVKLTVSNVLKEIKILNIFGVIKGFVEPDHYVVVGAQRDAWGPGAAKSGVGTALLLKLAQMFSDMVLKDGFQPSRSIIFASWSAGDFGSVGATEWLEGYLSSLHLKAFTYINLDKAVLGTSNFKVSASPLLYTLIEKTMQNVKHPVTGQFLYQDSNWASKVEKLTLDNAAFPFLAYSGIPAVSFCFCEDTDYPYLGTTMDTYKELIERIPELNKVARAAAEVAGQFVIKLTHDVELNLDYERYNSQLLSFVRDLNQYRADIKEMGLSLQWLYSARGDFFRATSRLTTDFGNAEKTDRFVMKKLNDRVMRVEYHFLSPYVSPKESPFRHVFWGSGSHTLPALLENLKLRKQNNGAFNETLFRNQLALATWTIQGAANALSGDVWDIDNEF

Compound	Kd [2, 3] [nM]	Kd [2, 4] [nM]	other results
CC[C@H](C)[C@@H]1NC(=O)[C@H](Cc2ccc(OCC(=O)NC[C@H](O)[C@@H](O)[C@H](O)[C@H](O)CO)cc2)NC(=O)[C@H](Cc2ccc(O)cc2)NC(=O)[C@H](CC(N)=O)NC(=O)[C@H](Cc2c[nH]c3ccccc23)NC(=O)[C@H](C(C)C)NC(=O)[C@H](Cc2cccc(Cl)c2)N(C)C(=O)[C@H](C(C)C)NC(=O)[C@H](C)NC(=O)CSC[C@@H](C(=O)NCCOCCOCCOCCOCCC(N)=O)NC(=O)[C@H](Cc2ccc(O)cc2)N(C)C(=O)[C@H](Cc2ccccc2)NC(=O)[C@H](CCC(N)=O)NC(=O)[C@H](CCC(=O)NC[C@H](O)[C@@H](O)[C@H](O)[C@H](O)CO)NC(=O)[C@H]([C@@H](C)CC)NC1=O [compound 39] ({CH2CO}-AV[NMePhe(3-Cl)]VWNYY(CH2CO(D-glucamine))IIE(NH(1-deoxy-D-glucityl))QF[NMeY]C[PEG4]-NH2; thioether N-15)	–	–	Kd ([1]; pH 6.0, single-cycle kinetics): 12.4 nM
CCC(CC)[C@@H]1NC(=O)[C@H](Cc2ccc(O)cc2)NC(=O)[C@H](Cc2ccc(O)cc2)NC(=O)[C@H](CC(N)=O)NC(=O)[C@H](Cc2c[nH]c3ccccc23)N(C)C(=O)[C@H](C(C)C)NC(=O)[C@H](Cc2ccccc2)N(C)C(=O)[C@H](C(C)C)NC(=O)[C@H](C)NC(=O)CSC[C@@H](C(=O)NCCOCCOCCOCCOCCC(N)=O)NC(=O)[C@H](Cc2ccc(O)cc2)N(C)C(=O)[C@H](Cc2ccc(O)cc2)NC(=O)[C@H](CCCNC(=N)N)NC(=O)[C@H](CCCCN)NC(=O)[C@H]([C@@H](C)CC)NC1=O [compound 117]	–	–	Kd ([1]; SPR, pH 6.0, peptide with the linker named in the table): 13.8 nM
CC[C@H](C)[C@@H]1NC(=O)[C@H](Cc2ccc(OCC(=O)N3CCN(CC(=O)O)CC3)cc2)NC(=O)[C@H](Cc2ccc(N)nc2)NC(=O)[C@H](CC(N)=O)NC(=O)[C@H](Cc2c[nH]c3ncccc23)NC(=O)[C@H](C(C)C)NC(=O)[C@H](Cc2cccc(Cl)c2)N(C)C(=O)[C@H](C(C)C)NC(=O)[C@H](C)NC(=O)CSC[C@@H](C(=O)NCCOCCOCCOCCOCCC(N)=O)NC(=O)[C@H](Cc2ccc(O)cc2)N(C)C(=O)[C@H](Cc2cccc(C(=O)O)c2)NC(=O)[C@H](CCCNC(=N)N)NC(=O)[C@H](CCC(=O)NCCOCCOCCOCCOCCOCCOCCOCCOC)NC(=O)[C@H]([C@@H](C)CC)NC1=O [compound 159] ({CH2CO}-AV[NMePhe(3-Cl)]V[Trp(7-aza)]N[3Pal(6-NH2)]Y(CH2CON(CH2CH2)2NCH2COOH)IIE(NH(CH2CH2O)8Me)R[Phe(3-COOH)][NMeY]C[PEG4]-NH2; thioether N-15)	6.55	–	–
CC[C@H](C)[C@@H]1NC(=O)[C@H](Cc2ccc(OCC(=O)N3CCN(CC(=O)O)CC3)cc2)NC(=O)[C@H](Cc2ccc(N)nc2)NC(=O)[C@H](CC(N)=O)NC(=O)[C@H](Cc2cn(CC(=O)O)c3ccccc23)NC(=O)[C@H](C(C)C)NC(=O)[C@H](Cc2cccc(Cl)c2)N(C)C(=O)[C@H](C(C)C)NC(=O)[C@H](C)NC(=O)CSC[C@@H](C(=O)NCCOCCOCCOCCOCCC(N)=O)NC(=O)[C@H](Cc2ccc(O)cc2)N(C)C(=O)[C@H](Cc2ccncc2)NC(=O)[C@H](CCCNC(=N)N)NC(=O)[C@H](CCC(=O)NCCOCCOCCOCCOCCOCCOCCOCCOC)NC(=O)[C@H]([C@@H](C)CC)NC1=O [compound 160]	20.8	–	–
CCC(CC)[C@@H]1NC(=O)[C@H](Cc2ccc(OCC(=O)O)cc2)NC(=O)[C@H](Cc2ccc(N)nc2)NC(=O)[C@H](CC(N)=O)NC(=O)[C@H](Cc2c[nH]c3ncccc23)NC(=O)[C@H](C(C)C)NC(=O)[C@H](Cc2cccc(Cl)c2)N(C)C(=O)[C@H](C(C)C)NC(=O)[C@H](C)NC(=O)CSC[C@@H](C(=O)NCCOCCOCCOCCOCCC(N)=O)NC(=O)[C@H](Cc2ccc(C(=O)O)cc2)N(C)C(=O)[C@H](Cc2cccc(C(=O)O)c2)NC(=O)[C@H](CCCNC(=N)N)NC(=O)[C@H](CCC(=O)NCCOCCOCCOCCOCCOCCOCCOCCOC)NC(=O)[C@H]([C@@H](C)CC)NC1=O [compound 161] ({CH2CO}-AV[NMePhe(3-Cl)]V[Trp(7-aza)]N[3Pal(6-NH2)]Y(Carboxymethyl)[Nva(3-Et)]IE(NH(CH2CH2O)8Me)R[Phe(3-COOH)][NMePhe(4-COOH)]C[PEG4]-NH2; thioether N-15)	12200	–	–
CCC(CC)[C@@H]1NC(=O)[C@H](Cc2ccc(O)cc2)NC(=O)[C@H](Cc2ccc(O)cc2)NC(=O)[C@H](CC(N)=O)NC(=O)[C@H](Cc2c[nH]c3ccccc23)N(C)C(=O)[C@H](C(C)C)NC(=O)[C@H](Cc2ccccc2)N(C)C(=O)[C@H](C(C)C)NC(=O)[C@H](C)NC(=O)CSC[C@@H](C(=O)NCC(=O)N[C@@H](CCCCN=[N+]=[N-])C(N)=O)NC(=O)[C@H](Cc2ccc(O)cc2)N(C)C(=O)[C@H](Cc2cccc(C(=O)NCCOCCOCCOCCOCCC(=O)O)c2)NC(=O)[C@H](CCCNC(=N)N)NC(=O)[C@H](CCCCN)NC(=O)[C@H]([C@@H](C)CC)NC1=O [compound 195] ({CH2CO}-AV[NMeF]V[NMeW]NYY[Nva(3-Et)]IKR[X1](PEG4)[NMeY]CG[Lys(N3)]-NH2; thioether N-15)	–	–	Kd ([2]; Table 1-3-2-2, read-out: hTfR SPR pH7.4 KD): 5.77 nM
CC[C@H](C)[C@@H]1NC(=O)[C@H](Cc2ccc(OC)cc2)NC(=O)[C@H](Cc2ccc(N)nc2)NC(=O)[C@H](CC(N)=O)NC(=O)[C@H](Cc2cnc3ccccn23)NC(=O)[C@H](C(C)C)NC(=O)[C@H](Cc2cccc(Cl)c2)N(C)C(=O)[C@H](C(C)C)NC(=O)[C@H](C)NC(=O)CSC[C@@H](C(=O)NCC(=O)N[C@H](CCC(=O)O)C(=O)N[C@H](CCC(=O)O)C(=O)N[C@H](CCC(=O)O)C(=O)N[C@H](CO)C(=O)N[C@H](CO)C(=O)N[C@@H](CCCCN=[N+]=[N-])C(N)=O)NC(=O)[C@H](Cc2ccc(C(=O)O)cc2)N(C)C(=O)[C@H](Cc2ccncc2)NC(=O)[C@H](CCCNC(=N)N)NC(=O)[C@H](CCCNC(=N)N)NC(=O)[C@H]([C@@H](C)CC)NC1=O [compound 200]	–	81.6	–
CC[C@H](C)[C@@H]1NC(=O)[C@H](Cc2ccc(OC)cc2)NC(=O)[C@H](Cc2ccc(N)nc2)NC(=O)[C@H](CC(N)=O)NC(=O)[C@H](Cc2cnc3ccccn23)NC(=O)[C@H](C(C)C)NC(=O)[C@H](Cc2ccccc2)N(C)C(=O)[C@H](C(C)C)NC(=O)[C@H](C)NC(=O)CSC[C@@H](C(=O)NCC(=O)N[C@H](CCC(=O)O)C(=O)N[C@H](CCC(=O)O)C(=O)N[C@H](CCC(=O)O)C(=O)N[C@H](CO)C(=O)N[C@H](CO)C(=O)N[C@@H](CCCCN=[N+]=[N-])C(N)=O)NC(=O)[C@H](Cc2ccc(C(=O)O)cc2)N(C)C(=O)[C@H](Cc2ccncc2)NC(=O)[C@H](CCCNC(=N)N)NC(=O)[C@H](CCCNC(=N)N)NC(=O)[C@H]([C@@H](C)CC)NC1=O [compound 201]	–	212	–
CC[C@H](C)[C@@H]1NC(=O)[C@H](Cc2ccc(OC)cc2)NC(=O)[C@H](Cc2ccc(N)nc2)NC(=O)[C@H](CC(N)=O)NC(=O)[C@H](Cc2cnc3ccccn23)NC(=O)[C@H](C(C)C)NC(=O)[C@H](Cc2ccccc2)N(C)C(=O)[C@H](C(C)C)NC(=O)[C@H](C)NC(=O)CSC[C@@H](C(=O)NCC(=O)N[C@H](CCC(=O)O)C(=O)N[C@H](CCC(=O)O)C(=O)N[C@H](CCC(=O)O)C(=O)N[C@H](CO)C(=O)N[C@H](CO)C(=O)N[C@@H](CCCCN=[N+]=[N-])C(N)=O)NC(=O)[C@H](Cc2ccc(O)cc2)N(C)C(=O)[C@H](Cc2ccncc2)NC(=O)[C@H](CCCNC(=N)N)NC(=O)[C@H](CCCNC(=N)N)NC(=O)[C@H]([C@@H](C)CC)NC1=O [compound 202]	–	515	–
